ChEMBL document CHEMBL1201862, “PubChem BioAssay data set” (2004)
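Test compounds were applied to cells in 96-well plates for 48 hours at 5 doses. GI50 = concentration required for 50% inhibition of growth.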 Active and inactive are the calls of the source. Rule as the data show it: active = GI50 up to about 1.1 µM and inactive = higher.

Legend:
Assay in all cases: NCI-60 cell line screen, 48 h
SF-539 = tested on: SF-539
BT-549 = tested on: BT-549
SNB-75 = tested on: SNB-75
NCI/ADR-RES = tested on: NCI/ADR-RES
PC-3 = tested on: PC-3
SR = tested on: SR
SF-295 = tested on: SF-295
OVCAR-5 = tested on: OVCAR-5
MCF7 = tested on: MCF7
SNB-19 = tested on: SNB-19
UO-31 = tested on: UO-31
HCT-15 = tested on: HCT-15
K562 = tested on: K562
HT-29 = tested on: HT-29
UACC-257 = tested on: UACC-257
HCT-116 = tested on: HCT-116
KM12 = tested on: KM12
OVCAR-8 = tested on: OVCAR-8
HL-60 = tested on: HL-60
SK-MEL-2 = tested on: SK-MEL-2
LOX IMVI = tested on: LOX IMVI
U-251 = tested on: U-251
SK-MEL-5 = tested on: SK-MEL-5
Malme-3M = tested on: Malme-3M
MDA-MB-435 = tested on: MDA-MB-435
SF-268 = tested on: SF-268
COLO 205 = tested on: COLO 205
SW-620 = tested on: SW-620
EKVX = tested on: EKVX
NCI-H460 = tested on: NCI-H460
NCI-H23 = tested on: NCI-H23
HOP-62 = tested on: HOP-62
OVCAR-3 = tested on: OVCAR-3
CAKI-1 = tested on: CAKI-1
T47D = tested on: T47D
IGROV-1 = tested on: IGROV-1
NCI-H226 = tested on: NCI-H226
786-0 = tested on: 786-0
CCRF-CEM = tested on: CCRF-CEM
Hs-578T = tested on: Hs-578T
SK-OV-3 = tested on: SK-OV-3
UACC-62 = tested on: UACC-62
SN12C = tested on: SN12C
MOLT-4 = tested on: MOLT-4
M14 = tested on: M14
RPMI-8226 = tested on: RPMI-8226
TK-10 = tested on: TK-10
DU-145 = tested on: DU-145
MDA-MB-231 = tested on: MDA-MB-231
MDA-N = tested on: MDA-N
ACHN = tested on: ACHN
SK-MEL-28 = tested on: SK-MEL-28
A498 = tested on: A498
RXF 393 = tested on: RXF 393
HOP-92 = tested on: HOP-92
OVCAR-4 = tested on: OVCAR-4
A549 = tested on: A549
HCC 2998 = tested on: HCC 2998
NCI-H522 = tested on: NCI-H522

CCCC(C)NC(=O)c1ccc(N(C)Cc2cnc3nc(N)nc(N)c3n2)cc1 (centres undefined)
GI50 (SF-539): 11 µM (inactive) | GI50 (BT-549): 15.5 µM (inactive) | GI50 (SNB-75): 24.4 µM (inactive) | GI50 (NCI/ADR-RES): > 100 µM (inactive) | GI50 (PC-3): 9.84 µM (inactive) | GI50 (SR): 17.6 µM (inactive) | GI50 (SF-295): 27.6 µM (inactive) | GI50 (OVCAR-5): 29.3 µM (inactive) | GI50 (MCF7): 23.3 µM (inactive) | GI50 (SNB-19): 22.6 µM (inactive) | GI50 (UO-31): 46.1 µM (inactive) | GI50 (HCT-15): 26.4 µM | GI50 (K562): 8 µM (inactive) | GI50 (HT-29): 17.6 µM (inactive) | GI50 (UACC-257): 15.9 µM (inactive) | GI50 (HCT-116): 5.16 µM (inactive) | GI50 (KM12): 31.3 µM (inactive) | GI50 (OVCAR-8): 14.9 µM (inactive) | GI50 (HL-60): 16.4 µM (inactive) | GI50 (SK-MEL-2): 21.8 µM (inactive) | GI50 (LOX IMVI): 5.42 µM (inactive) | GI50 (U-251): 14.8 µM (inactive) | GI50 (SK-MEL-5): 10.1 µM (inactive) | GI50 (Malme-3M): 16.9 µM (inactive) | GI50 (MDA-MB-435): 11.7 µM (inactive) | GI50 (SF-268): 12 µM (inactive) | GI50 (COLO 205): 28.2 µM (inactive) | GI50 (SW-620): 28.4 µM (inactive) | GI50 (EKVX): 56.9 µM (inactive) | GI50 (NCI-H460): 21.5 µM (inactive) | GI50 (NCI-H23): 29.4 µM (inactive) | GI50 (HOP-62): 29.5 µM (inactive) | GI50 (OVCAR-3): 21.4 µM (inactive) | GI50 (CAKI-1): 34 µM (inactive) | GI50 (T47D): 24 µM (inactive) | GI50 (IGROV-1): 17.7 µM (inactive) | GI50 (NCI-H226): 19.1 µM (inactive) | GI50 (786-0): 10.5 µM (inactive) | GI50 (CCRF-CEM): 26.2 µM (inactive) | GI50 (Hs-578T): 16.2 µM (inactive) | GI50 (SK-OV-3): 41.6 µM (inactive) | GI50 (UACC-62): 6.3 µM (inactive) | GI50 (SN12C): 44.6 µM (inactive) | GI50 (MOLT-4): 33.2 µM (inactive) | GI50 (M14): 11.5 µM (inactive) | GI50 (RPMI-8226): 91 µM (inactive) | GI50 (TK-10): 31.3 µM (inactive) | GI50 (DU-145): 27.2 µM (inactive) | GI50 (MDA-MB-231): 27.5 µM (inactive) | GI50 (MDA-N): 14.6 µM (inactive) | GI50 (ACHN): 35.2 µM (inactive) | GI50 (SK-MEL-28): 18.5 µM (inactive) | GI50 (A498): 69 µM (inactive) | GI50 (RXF 393): 26.2 µM (inactive)

CC(=O)OC1CC[C@@]2(C)C(=CC[C@@H]3[C@@H]2CC[C@]2(C)Nc4c(cnn4-c4ccc(F)cc4)C[C@@H]32)C1 (some centres undefined)
GI50 (SF-539): 5.33 µM (inactive) | GI50 (BT-549): 17.3 µM (inactive) | GI50 (SNB-75): 16.8 µM (inactive) | GI50 (NCI/ADR-RES): 60.1 µM (inactive) | GI50 (PC-3): 23.1 µM (inactive) | GI50 (HOP-92): 53.5 µM (inactive) | GI50 (SF-295): 4.53 µM (inactive) | GI50 (OVCAR-5): > 87.5 µM (inactive) | GI50 (MCF7): > 34.8 µM (inactive) | GI50 (SNB-19): 30.9 µM (inactive) | GI50 (UO-31): 12.6 µM (inactive) | GI50 (HCT-15): 20 µM | GI50 (K562): 21.4 µM (inactive) | GI50 (OVCAR-4): > 53.5 µM (inactive) | GI50 (HT-29): 13.2 µM (inactive) | GI50 (UACC-257): 45.1 µM (inactive) | GI50 (HCT-116): 7.4 µM (inactive) | GI50 (KM12): 16.2 µM (inactive) | GI50 (OVCAR-8): 40 µM (inactive) | GI50 (HL-60): 2.93 µM (inactive) | GI50 (SK-MEL-2): 17.9 µM (inactive) | GI50 (LOX IMVI): 7.85 µM (inactive) | GI50 (U-251): 7.43 µM (inactive) | GI50 (SK-MEL-5): 25.9 µM (inactive) | GI50 (Malme-3M): 9.35 µM (inactive) | GI50 (MDA-MB-435): 39.4 µM (inactive) | GI50 (SF-268): 39.4 µM (inactive) | GI50 (COLO 205): 5.45 µM (inactive) | GI50 (SW-620): 22.9 µM (inactive) | GI50 (EKVX): 33.5 µM (inactive) | GI50 (NCI-H460): 12.9 µM (inactive) | GI50 (NCI-H23): 22.1 µM (inactive) | GI50 (HOP-62): 5.5 µM (inactive) | GI50 (OVCAR-3): > 39.4 µM (inactive) | GI50 (CAKI-1): 6.1 µM (inactive) | GI50 (T47D): 14.9 µM (inactive) | GI50 (IGROV-1): 42.2 µM (inactive) | GI50 (NCI-H226): 59.7 µM (inactive) | GI50 (786-0): 3.26 µM (inactive) | GI50 (CCRF-CEM): 6.46 µM (inactive) | GI50 (Hs-578T): 14.1 µM (inactive) | GI50 (SK-OV-3): 32.1 µM (inactive) | GI50 (UACC-62): 15.8 µM (inactive) | GI50 (SN12C): > 100 µM (inactive) | GI50 (MOLT-4): 2.02 µM (inactive) | GI50 (A549): 24.3 µM (inactive) | GI50 (M14): 30.5 µM (inactive) | GI50 (RPMI-8226): 3.24 µM (inactive) | GI50 (TK-10): 49 µM (inactive) | GI50 (DU-145): 45.5 µM (inactive) | GI50 (MDA-MB-231): 33 µM (inactive) | GI50 (MDA-N): 39.2 µM (inactive) | GI50 (ACHN): 35.3 µM (inactive) | GI50 (HCC 2998): > 100 µM (inactive) | GI50 (NCI-H522): 68.4 µM (inactive) | GI50 (SK-MEL-28): 15.1 µM (inactive) | GI50 (A498): 19.8 µM (inactive) | GI50 (RXF 393): 2.64 µM (inactive)

O=c1[nH]nc(Cc2ccccc2)n1CCCl
GI50 (SF-539): > 100 µM (inactive) | GI50 (BT-549): > 100 µM (inactive) | GI50 (SNB-75): > 100 µM (inactive) | GI50 (NCI/ADR-RES): > 100 µM (inactive) | GI50 (PC-3): > 100 µM (inactive) | GI50 (SR): > 100 µM (inactive) | GI50 (SF-295): > 100 µM (inactive) | GI50 (OVCAR-5): > 100 µM (inactive) | GI50 (MCF7): > 100 µM (inactive) | GI50 (SNB-19): > 100 µM (inactive) | GI50 (UO-31): > 100 µM (inactive) | GI50 (HCT-15): > 100 µM | GI50 (K562): > 100 µM (inactive) | GI50 (OVCAR-4): > 100 µM (inactive) | GI50 (HT-29): > 100 µM (inactive) | GI50 (HCT-116): > 100 µM (inactive) | GI50 (KM12): > 100 µM (inactive) | GI50 (OVCAR-8): > 100 µM (inactive) | GI50 (HL-60): > 100 µM (inactive) | GI50 (SK-MEL-2): > 100 µM (inactive) | GI50 (LOX IMVI): > 100 µM (inactive) | GI50 (U-251): > 100 µM (inactive) | GI50 (Malme-3M): > 100 µM (inactive) | GI50 (MDA-MB-435): > 100 µM (inactive) | GI50 (SF-268): > 100 µM (inactive) | GI50 (COLO 205): > 100 µM (inactive) | GI50 (SW-620): > 100 µM (inactive) | GI50 (EKVX): > 100 µM (inactive) | GI50 (NCI-H460): > 100 µM (inactive) | GI50 (NCI-H23): > 100 µM (inactive) | GI50 (HOP-62): > 100 µM (inactive) | GI50 (OVCAR-3): > 100 µM (inactive) | GI50 (CAKI-1): > 100 µM (inactive) | GI50 (T47D): > 100 µM (inactive) | GI50 (IGROV-1): > 100 µM (inactive) | GI50 (NCI-H226): > 100 µM (inactive) | GI50 (786-0): > 100 µM (inactive) | GI50 (CCRF-CEM): > 100 µM (inactive) | GI50 (Hs-578T): > 100 µM (inactive) | GI50 (SK-OV-3): > 100 µM (inactive) | GI50 (UACC-62): > 100 µM (inactive) | GI50 (SN12C): > 100 µM (inactive) | GI50 (MOLT-4): > 100 µM (inactive) | GI50 (M14): > 100 µM (inactive) | GI50 (RPMI-8226): > 100 µM (inactive) | GI50 (DU-145): > 100 µM (inactive) | GI50 (MDA-MB-231): > 100 µM (inactive) | GI50 (MDA-N): > 100 µM (inactive) | GI50 (HCC 2998): > 100 µM (inactive) | GI50 (SK-MEL-28): > 100 µM (inactive) | GI50 (A498): > 100 µM (inactive) | GI50 (RXF 393): 90.8 µM (inactive)
